Data: patent US10752624B2, “Kinase inhibitors” (Origenis GmbH, priority 2012, dated 2020)
pIC50: −log10 of the molar value.

Molecular target: LRRK2 (Homo sapiens, UniProt Q5S007)
Assay: LRRK2-LRRK2 G2019S-Assay (LanthaScreen Eu Kinase Binding Assay)
Details: 5 nM LRRK2, 10 nM tracer 236, 2 nM EU-Anti-GST antibody, 1 h at RT; read-out: LRRK2 Activities: IC50
Method: In the assay LanthaScreen™ Eu Kinase Binding Assay by Invitrogen Corporation (Carlsbad) the effect of invention of a compound on the phosphorylation is determined by measurement of fluorescence intensity emission ratio based on the binding and displacement of a proprietary, Alexa Fluor® 647-labeled, ATP-competitive kinase inhibitor scaffold (kinase tracer) to the kinase of interest. Binding of the tracer to the kinase is detected using a europium-labeled anti-tag antibody, which binds to the kinase of interest. Simultaneous binding of both the tracer and antibody to the kinase results in a high degree of FRET (fluorescence resonance energy transfer) from the europium (Eu) donor fluorophore to the Alexa Fluor® 647 acceptor fluorophore on the kinase tracer. Binding of an inhibitor to the kinase competes for binding with the tracer, resulting in a loss of FRET. The fluorescence intensity ratio is directly proportional to the amount of peptide phosphorylation.
To the wells of an 384 well small volume plate (Greiner, Frickenhausen) are added (i) the compound under test in 5% DMSO/distilled water (5 μl), (ii) 5 μl of the kinase antibody mixture resulting in a final concentration 5 nM LRRK2 or their mutants, 2 nM EU-Anti-GST antibody in 1× kinase buffer A. The reaction was started with addition of (iii) 5 μl resulting in a final concentration of 10 nM tracer 236. The assay plate was incubated at RT for 1 h and fluorescence intensity readings were collected using a TECAN M1000 at two wavelengths of λex 340/λem 615 nm and λex 340/λem 665 nm with a delay time of 100 μs and an integration time of 200 μs after 60 minutes. The emission ratio was calculated by division of the acceptor/tracer emission ([…]) by the antibody/donor emission ([…]). The inhibitor concentration was plotted versus the emission ratio to determine the IC50 using XLFit 5.0 (IDBS, Guildford) to fit to a sigmoidal dose response curve with a variable slope.

Sequence of LRRK2 (Q5S007 970-2527 limits assumed): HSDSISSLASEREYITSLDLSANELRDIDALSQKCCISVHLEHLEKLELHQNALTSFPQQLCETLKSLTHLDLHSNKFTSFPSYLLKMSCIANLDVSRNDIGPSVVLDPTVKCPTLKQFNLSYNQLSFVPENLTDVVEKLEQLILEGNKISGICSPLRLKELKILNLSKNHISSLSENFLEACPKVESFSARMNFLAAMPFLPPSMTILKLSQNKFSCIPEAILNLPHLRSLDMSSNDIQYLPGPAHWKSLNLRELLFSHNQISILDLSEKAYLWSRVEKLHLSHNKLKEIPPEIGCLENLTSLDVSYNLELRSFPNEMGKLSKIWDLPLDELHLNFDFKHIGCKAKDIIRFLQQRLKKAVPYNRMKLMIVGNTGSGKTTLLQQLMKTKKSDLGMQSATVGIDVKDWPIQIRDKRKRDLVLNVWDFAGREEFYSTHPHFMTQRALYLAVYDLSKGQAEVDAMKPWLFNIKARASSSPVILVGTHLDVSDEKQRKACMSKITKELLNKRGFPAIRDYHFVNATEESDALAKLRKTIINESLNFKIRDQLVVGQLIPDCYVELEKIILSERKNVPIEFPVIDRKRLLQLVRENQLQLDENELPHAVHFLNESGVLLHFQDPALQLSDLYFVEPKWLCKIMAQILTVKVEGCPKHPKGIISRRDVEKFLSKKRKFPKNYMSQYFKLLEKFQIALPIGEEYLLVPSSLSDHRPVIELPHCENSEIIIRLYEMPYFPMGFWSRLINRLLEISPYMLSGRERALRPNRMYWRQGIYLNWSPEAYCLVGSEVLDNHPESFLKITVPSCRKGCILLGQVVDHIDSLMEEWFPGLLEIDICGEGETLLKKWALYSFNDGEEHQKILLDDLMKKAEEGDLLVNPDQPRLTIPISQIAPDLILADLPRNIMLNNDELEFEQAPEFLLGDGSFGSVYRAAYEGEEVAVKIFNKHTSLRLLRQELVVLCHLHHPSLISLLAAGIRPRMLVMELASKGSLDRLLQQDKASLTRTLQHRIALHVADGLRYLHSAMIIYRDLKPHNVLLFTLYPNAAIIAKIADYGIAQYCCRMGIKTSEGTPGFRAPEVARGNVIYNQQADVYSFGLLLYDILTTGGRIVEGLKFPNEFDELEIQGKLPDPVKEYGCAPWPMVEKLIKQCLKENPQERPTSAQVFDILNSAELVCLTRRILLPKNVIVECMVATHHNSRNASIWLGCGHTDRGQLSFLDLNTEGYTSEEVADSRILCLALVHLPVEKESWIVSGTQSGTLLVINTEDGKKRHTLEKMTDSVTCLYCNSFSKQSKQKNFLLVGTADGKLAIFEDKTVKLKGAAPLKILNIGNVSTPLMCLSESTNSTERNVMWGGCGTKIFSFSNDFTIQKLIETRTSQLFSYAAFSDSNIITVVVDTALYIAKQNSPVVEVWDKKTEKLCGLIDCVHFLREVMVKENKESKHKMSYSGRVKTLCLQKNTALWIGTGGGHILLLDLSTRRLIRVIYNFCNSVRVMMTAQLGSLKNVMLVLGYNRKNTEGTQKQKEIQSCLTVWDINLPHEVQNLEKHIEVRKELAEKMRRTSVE

| pIC50 | SMILES |
| --- | --- |
| > 8.00 | COCCn1cc(Nc2nc3cccc(OC)c3c3c[nH]nc23)cn1 [Example 156, 9-methoxy-N-(1-(2-methoxyethyl)-1H-pyrazol-4-yl)-2H-pyrazolo[3,4-c]quinolin-4-amine] |
| > 8.00 | COc1cccc2nc(Nc3cnn(C4CCN(C(C)=O)CC4)c3)c3[nH]ncc3c12 [Example 157, 1-(4-(4-((9-methoxy-3H-pyrazolo[3,4-c]quinolin-4-yl)amino)-1H-pyrazol-1-yl)piperidin-1-yl)ethan-1-one] |
| > 8.00 | CS(=O)(=O)c1ccc2c(c1)nc(Nc1cnn(C3CCOCC3)c1)c1[nH]ncc12 [Example 160, 7-(methylsulfonyl)-N-(1-(tetrahydro-2H-pyran-4-yl)-1H-pyrazol-4-yl)-3H-pyrazolo[3,4-c]quinolin-4-amine] |
| 6.00 to 7.00 | COc1ccc2nc(Nc3cnn(C(C)(C)C(N)=O)c3)c3n[nH]cc3c2c1 [Example 164, 2-(4-((8-methoxy-2H-pyrazolo[3,4-c]quinolin-4-yl)amino)-1H-pyrazol-1-yl)-2-methylpropanamide] |
| 7.00 to 8.00 | CS(=O)(=O)c1ccc2c(c1)nc(Nc1cnn(C3CCOCC3)c1)c1[nH]ncc12 [Example 169, 7-(methylsulfonyl)-N-(1-(tetrahydro-2H-pyran-4-yl)-1H-pyrazol-4-yl)-3H-pyrazolo[3,4-c]quinolin-4-amine] |
| 6.00 to 7.00 | CS(=O)(=O)c1ccc2c(c1)nc(Nc1ccc(C(=O)N3CCOCC3)c(F)c1)c1[nH]ncc12 [Example 174, (2-fluoro-4-((7-(methylsulfonyl)-3H-pyrazolo[3,4-c]quinolin-4-yl)amino)phenyl)(morpholino)methanone] |
| > 8.00 | COc1cccc2nc(Nc3cnn(C(C)(C)C)c3)c3[nH]ncc3c12 [Example 181, N-(1-(tert-butyl)-1H-pyrazol-4-yl)-9-methoxy-3H-pyrazolo[3,4-c]quinolin-4-amine] |
| > 8.00 | COc1cccc2nc(Nc3cnn(C4(C#N)CCCCC4)c3)c3[nH]ncc3c12 [Example 185, 1-(4-((9-methoxy-3H-pyrazolo[3,4-c]quinolin-4-yl)amino)-1H-pyrazol-1-yl)cyclohexanecarbonitrile] |
| 6.00 to 7.00 | COc1cc(C(=O)N2CCOCC2)ccc1Nc1nc2cc(S(C)(=O)=O)ccc2c2cn[nH]c12 [Example 194, (3-methoxy-4-((7-(methylsulfonyl)-3H-pyrazolo[3,4-c]quinolin-4-yl)amino)phenyl)(morpholino)methanone] |
| 7.00 to 8.00 | COc1cc(C(=O)N2CCOCC2)ccc1Nc1nc2cccc(OC)c2c2cn[nH]c12 [Example 200, (3-methoxy-4-((9-methoxy-3H-pyrazolo[3,4-c]quinolin-4-yl)amino)phenyl)(morpholino)methanone] |
| 6.00 to 7.00 | Cn1cccc(Nc2nc3ccc(S(C)(=O)=O)cc3c3cn[nH]c23)c1=O [Example 202, 1-methyl-3-((8-(methylsulfonyl)-3H-pyrazolo[3,4-c]quinolin-4-yl)amino)pyridin-2(1H)-one] |
| 7.00 to 8.00 | COCCn1cc(Nc2nc3cccc(OC)c3c3cn[nH]c23)c(C)n1 [Example 205, 9-methoxy-N-(1-(2-methoxyethyl)-3-methyl-1H-pyrazol-4-yl)-3H-pyrazolo[3,4-c]quinolin-4-amine] |
| 7.00 to 8.00 | COc1cccc2nc(Nc3cn(C4CCOCC4)nc3C)c3[nH]ncc3c12 [Example 207, 9-methoxy-N-(3-methyl-1-(tetrahydro-2H-pyran-4-yl)-1H-pyrazol-4-yl)-3H-pyrazolo[3,4-c]quinolin-4-amine] |
| 7.00 to 8.00 | COCCn1cc(Nc2nc3ccc(S(C)(=O)=O)cc3c3cn[nH]c23)c(C)n1 [Example 209, N-(1-(2-methoxyethyl)-3-methyl-1H-pyrazol-4-yl)-8-(methylsulfonyl)-3H-pyrazolo[3,4-c]quinolin-4-amine] |
| 7.00 to 8.00 | COCCn1ncc(Nc2nc3ccc(S(C)(=O)=O)cc3c3cn[nH]c23)c1C [Example 210, N-(1-(2-methoxyethyl)-5-methyl-1H-pyrazol-4-yl)-8-(methylsulfonyl)-3H-pyrazolo[3,4-c]quinolin-4-amine] |
| > 8.00 | Cc1nn(C(C)C)cc1Nc1nc2ccc(S(C)(=O)=O)cc2c2cn[nH]c12 [Example 213, N-(1-isopropyl-3-methyl-1H-pyrazol-4-yl)-8-(methylsulfonyl)-3H-pyrazolo[3,4-c]quinolin-4-amine] |
| > 8.00 | Cc1c(Nc2nc3ccc(S(C)(=O)=O)cc3c3cn[nH]c23)cnn1C(C)C [Example 214, N-(1-isopropyl-5-methyl-1H-pyrazol-4-yl)-8-(methylsulfonyl)-3H-pyrazolo[3,4-c]quinolin-4-amine] |

| pIC50 | SMILES |
| --- | --- |
| 7.00 to 8.00 | Cc1nn(C2CCOCC2)cc1Nc1nc2ccc(S(C)(=O)=O)cc2c2cn[nH]c12 [Example 216, N-(3-methyl-1-(tetrahydro-2H-pyran-4-yl)-1H-pyrazol-4-yl)-8-(methylsulfonyl)-3H-pyrazolo[3,4-c]quinolin-4-amine] |
| 7.00 to 8.00 | Cc1nn(C(C)C)cc1Nc1nc2ccc(S(C)(=O)=O)cc2c2cn[nH]c12 [Example 217, N-(1-isopropyl-3-methyl-1H-pyrazol-4-yl)-8-(methylsulfonyl)-3H-pyrazolo[3,4-c]quinolin-4-amine] |
| > 8.00 | COc1cccc2nc(Nc3cnn(C(C)C)c3C)c3[nH]ncc3c12 [Example 219, N-(1-isopropyl-5-methyl-1H-pyrazol-4-yl)-9-methoxy-3H-pyrazolo[3,4-c]quinolin-4-amine] |
| > 8.00 | COc1cccc2nc(Nc3cn(C(C)C)nc3C)c3[nH]ncc3c12 [Example 220, N-(1-isopropyl-3-methyl-1H-pyrazol-4-yl)-9-methoxy-3H-pyrazolo[3,4-c]quinolin-4-amine] |
| 7.00 to 8.00 | COc1cccc2nc(Nc3cn(C(C)C)nc3C)c3[nH]ncc3c12 [Example 222, N-(1-isopropyl-3-methyl-1H-pyrazol-4-yl)-9-methoxy-3H-pyrazolo[3,4-c]quinolin-4-amine] |
| 7.00 to 8.00 | COc1nn(C2CCN(C(C)(C)C)CC2)cc1Nc1nc2cccc(OC)c2c2cn[nH]c12 [Example 225, N-(1-(1-(tert-butyl)piperidin-4-yl)-3-methoxy-1H-pyrazol-4-yl)-9-methoxy-3H-pyrazolo[3,4-c]quinolin-4-amine] |
| 7.00 to 8.00 | CS(=O)(=O)c1ccc2nc(Nc3cc(S(C)(=O)=O)sc3Cl)c3[nH]ncc3c2c1 [Example 230, N-(2-chloro-5-(methylsulfonyl)thiophen-3-yl)-8-(methylsulfonyl)-3H-pyrazolo[3,4-c]quinolin-4-amine] |
| 6.00 to 7.00 | COc1cccc2nc(Nc3c(C)nn(C(C)C)c3C)c3[nH]ncc3c12 [Example 234, N-(1-isopropyl-3,5-dimethyl-1H-pyrazol-4-yl)-9-methoxy-3H-pyrazolo[3,4-c]quinolin-4-amine] |
| 7.00 to 8.00 | COCCCn1ncc(Nc2nc3cccc(OC)c3c3cn[nH]c23)c1Cl [Example 235, N-(5-chloro-1-(3-methoxypropyl)-1H-pyrazol-4-yl)-9-methoxy-3H-pyrazolo[3,4-c]quinolin-4-amine] |
| 7.00 to 8.00 | COCCCn1ncc(Nc2nc3ccc(S(C)(=O)=O)cc3c3cn[nH]c23)c1Cl [Example 237, N-(5-chloro-1-(3-methoxypropyl)-1H-pyrazol-4-yl)-8-(methylsulfonyl)-3H-pyrazolo[3,4-c]quinolin-4-amine] |
| 6.00 to 7.00 | Cn1nc(C2CC2)cc1Nc1nc2ccc(S(C)(=O)=O)cc2c2cn[nH]c12 [Example 239, N-(3-cyclopropyl-1-methyl-1H-pyrazol-5-yl)-8-(methylsulfonyl)-3H-pyrazolo[3,4-c]quinolin-4-amine] |
| 6.00 to 7.00 | COc1cc(N2CCOC2=O)ccc1Nc1nc2ccc(S(C)(=O)=O)cc2c2cn[nH]c12 [Example 240, 3-(3-methoxy-4-((8-(methylsulfonyl)-3H-pyrazolo[3,4-c]quinolin-4-yl)amino)phenyl)oxazolidin-2-one] |
| 7.00 to 8.00 | COCCn1ncc(Nc2nc3cccc(OC)c3c3cn[nH]c23)c1Cl [Example 241, N-(5-chloro-1-(2-methoxyethyl)-1H-pyrazol-4-yl)-9-methoxy-3H-pyrazolo[3,4-c]quinolin-4-amine] |
| 7.00 to 8.00 | COCCn1ncc(Nc2nc3ccc(S(C)(=O)=O)cc3c3cn[nH]c23)c1Cl [Example 242, N-(5-chloro-1-(2-methoxyethyl)-1H-pyrazol-4-yl)-8-(methylsulfonyl)-3H-pyrazolo[3,4-c]quinolin-4-amine] |
| 7.00 to 8.00 | COCCn1ncc(Nc2nc3cc(S(C)(=O)=O)ccc3c3cn[nH]c23)c1Cl [Example 243, N-(5-chloro-1-(2-methoxyethyl)-1H-pyrazol-4-yl)-7-(methylsulfonyl)-3H-pyrazolo[3,4-c]quinolin-4-amine] |
| 7.00 to 8.00 | Cc1c(Nc2nc3cc(S(C)(=O)=O)ccc3c3cn[nH]c23)cnn1C(C)C [Example 244, N-(1-isopropyl-5-methyl-1H-pyrazol-4-yl)-7-(methylsulfonyl)-3H-pyrazolo[3,4-c]quinolin-4-amine] |
